Source: patent US4385047A, “Antiallergic imidodisulfamides” (SmithKline Beckman Corporation, priority 1981, dated 1983)

Tested on: partially purified slow reacting substance of anaphylaxis (SRS-A) obtained from guinea pig lung
Test: Inhibition of SRS-A induced contraction of guinea pig ileum
Settings: compound concentration 5×10^-6 M, agonist SRS-A 40 μg/ml, 15 min, 5 µM
Experimental: The SRS-A antagonist activity of the compounds of this invention is measured by the ability of the active medicament to inhibit SRS-A induced contraction of guinea pig ileum. In this test system, sections of ileum are resected from guinea pigs and placed in 5 ml. tissue baths containing a modified Tyrode's solution. One end of the tissue is fixed to a glass tissue holder, the other is connected to a force-displacement transducer and the tissue is placed under a tension of 500 mg. Isometric tissue contractions are recorded on a six channel polygraph. Baths are constantly aerated with 95% O2 -5% CO2. After a 20 minute stabilization period a concentration of the appropriate agonist which provides a contraction height of 60-80% of the maximum obtainable to that agonist (as determined from full sequential concentration--response curves in separate experiments) is added to the tissue bath and the response recorded. The procedure is repeated until reproducible responses are obtained. […] Percent inhibition produced by the test compound is calculated by subtracting the mean percentage change in control tissue from the mean percentage change in tissues exposed to the test compound. Additional compounds are then evaluated as long as the tissue remains reproducibly responsive to the agonist. […]

For `O=C(CS(=O)(=O)c1ccc2c(c1)CN(S(=O)(=O)NS(=O)(=O)N1CCc3ccc(S(=O)(=O)CC(=O)c4ccc(Cl)cc4)cc3C1)CC2)c1ccc(Cl)cc1` [Compound 1, N,N'-bis[7-(4-chlorobenzoylmethylsulfonyl)-1,2,3,4-tetrahydroisoquinolyl]disulfonylimide], the “percent antagonism of SRS-A induced contraction” value was 60%.
